In PMC9458111, “New 1,2,3-Triazole-Coumarin-Glycoside Hybrids and Their 1,2,4-Triazolyl Thioglycoside Analogs Targeting Mitochondria Apoptotic Pathway: Synthesis, Anticancer Activity and Docking Simulation” (Molecules, 2022):

What was measured:
[1] = tested on: human osteosarcoma (HOS cell lines); test: MTT cytotoxicity assay, HOS; format: cell-based; conditions: for cytotoxicity at 100 µM: 48 h; for IC50: MTT, 0.78–100 µM, ± SD
Description: (§1) The synthesized compounds were studied for their cytotoxic activity against several human cancer cell lines, namely human osteosarcoma (HOS cell lines), human breast adenocarcinoma (MDA-MB-231 cell lines), human breast cancer (MCF-7 cell lines), human colorectal adenocarcinoma (Caco-2 cell lines) and human colon cell line (HCT-116 cell lines) using MTT assay at 100 µM, and the results were outlined as shown in Table 1.
(§2) Human osteosarcoma (HOS cell line), human breast adenocarcinoma (MDA-MB-231cell lines), human breast cancer (MCF-7 cell lines), human colorectal adenocarcinoma (Caco2 cell lines), human colon cell line (HCT-116 cell lines), normal human cell lines (BJ-1), and “a telomerase immortalized normal foreskin fibroblast cell line” were obtained from Karolinska Center, Department of Oncology and Pathology, Karolinska Institute and Hospital, Stockholm, Sweden.
(§3) Following culturing for 10 days, the cells were seeded at concentration of 10 × 10^3 cells per well in case of MCF-7 & MDA, 20 × 10^3 cells/well in a fresh complete growth medium in case of HCT-116, Caco2, & HOS and 40 × 10^3 cells/well in case of BJ-1 at 37 °C for 24 h in a water jacketed carbon dioxide incubator. After 48 h’ incubation, the medium was aspirated, and then 40 μl MTT salt (2.5 mg/mL) were added for a further 4 h; 200 μl 10% sodium dodecyl sulphate (SDS) in deionized water were added to each well and incubated overnight at 37 °C. The absorbance was measured at 595 nm with reference 690 nm. Doxorubicin was used as positive control, and 0.5% DMSO was used as negative control. IC50 values were calculated, using a probit analysis, and by utilizing the SPSS computer program (SPSS for Windows, statistical analysis software package/version 9/1989 SPSS Inc., Chicago, IL, USA).

[2] = tested on: human breast adenocarcinoma (MDA-MB-231 cell lines); test: MTT cytotoxicity assay, MDA-MB-231; format: cell-based; conditions: for cytotoxicity at 100 µM: MDA-MB-231, 48 h
Description: as §1, §2, §3

[3] = tested on: human breast cancer (MCF-7 cell lines); test: MTT cytotoxicity assay, MCF-7; format: cell-based; conditions: MCF7, 48 h
Description: as §1, §2, §3

[4] = tested on: human colorectal adenocarcinoma (Caco-2 cell lines); test: MTT cytotoxicity assay, Caco-2; format: cell-based; conditions: Caco-2, 48 h
Description: as §1, §2, §3

[5] = tested on: human colon cell line (HCT-116 cell lines); test: MTT cytotoxicity assay, HCT-116; format: cell-based; conditions: for cytotoxicity at 100 µM: HCT-116, 48 h
Description: as §1, §2, §3

[6] = tested on: normal human skin cell lines BJ-1; test: Safety on normal human skin cells BJ-1 (MTT); format: cell-based; conditions: 100 µM
Description: To determine the selectivity and safety, all tested compounds were subjected to an assay for their safety upon normal human skin cell lines BJ-1 at a concentration of 100 µM.
as §2, §3

SMILES | cytotoxicity at 100 µM [1] [%] | cytotoxicity at 100 µM [2] [%] | cytotoxicity at 100 µM [3] [%] | cytotoxicity at 100 µM [4] [%] | cytotoxicity at 100 µM [5] [%] | melting point [°C] | Toxicity on normal skin cells BJ-1 (in words) [6] | IC50 [1] [µM] | IC50 ([2]; MDA-MB-231, MTT, 0.78–100 µM, ± SD) [µM] | IC50 ([5]; HCT-116, MTT, 0.78–100 µM, ± SD) [µM]
CCn1c(COc2ccc3c(-c4ccccc4)cc(=O)oc3c2)nnc1S[C@@H]1O[C@H](CO)[C@H](O)[C@H](O)[C@H]1O [Compound 9, 4-Phenyl-7-((4-ethyl-5-(1-(β-D-galactopyranosyl)thio)-4H-1,2,4-triazol-3-yl)meth-oxy)-2H-chromen-2-one] | 20.4 ± 0.4 | 27.7 ± 0.4 | 37.8 ± 0.3 | 1.7 ± 0.1 | 22.7 ± 0.9 | 184 to 185 | – | – | – | –
O=c1cc(-c2ccccc2)c2ccc(OCCCn3cc(CO[C@@H]4OC[C@@H](O)[C@H](O)[C@H]4O)nn3)cc2o1 [Compound 25] | 90.4 ± 0.8 | 94.2 ± 2.2 | 81.9 ± 0.9 | 82.7 ± 1.1 | 97.1 ± 1.1 | 188 to 189 | high toxicity | – | – | –
CCn1c(COc2ccc3c(-c4ccccc4)cc(=O)oc3c2)nnc1SCCOCCO [Compound 12, 4-Phenyl-7-((4-ethyl-5-((2-(2-hydroxyethoxy)ethyl)thio)-4H-1,2,4-triazol-3-yl)methoxy)-2H-chromen-2-one] | 97.2 ± 1.3 | 91.2 ± 0.8 | 97.6 ± 0.9 | 92 ± 1.3 | 84.4 ± 0.8 | 152 to 153 | high toxicity | – | – | –
Cn1c(COc2ccc3c(-c4ccccc4)cc(=O)oc3c2)nnc1S[C@@H]1O[C@H](CO)[C@H](O)[C@H](O)[C@H]1O [Compound 7, 4-Phenyl-7-((4-methyl-5-(1-(β-D-galactopyranosyl)thio)-4H-1,2,4-triazol-3-yl)methoxy)-2H-chromen-2-one] | 7.3 ± 0.3 | 15.5 ± 1.1 | 14.3 ± 0.2 | 35.7 ± 0.3 | 16.6 ± 0.8 | – | – | – | – | –
O=c1cc(-c2ccccc2)c2ccc(OCCCCI)cc2o1 [Compound 17, 7-(4-Iodobutoxy)-4-phenyl-2H-chromen-2-one] | 50.8 ± 0.7 | 7.7 ± 0.4 | 38.5 ± 1.2 | 34.3 ± 0.3 | 38.2 ± 0.7 | 143 to 145 | – | – | – | –
CCn1c(COc2ccc3c(-c4ccccc4)cc(=O)oc3c2)nnc1S[C@@H]1O[C@H](COC(C)=O)[C@H](OC(C)=O)[C@H](OC(C)=O)[C@H]1OC(C)=O [Compound 5, 4-Phenyl-7-((4-ethyl-5-(1-(2,3,4,6-tetra-O-acetyl-β-D-galactopyranosyl)thio)-4H-1,2,4-triazol-3-yl)methoxy)-2H-chromen-2-one] | 24.9 ± 0.6 | 18.5 ± 0.6 | 2.8 ± 0.2 | 20.6 ± 0.3 | 7.6 ± 0.2 | 151 to 152 | – | – | – | –
O=c1cc(-c2ccccc2)c2ccc(OCCCI)cc2o1 [Compound 16, 7-(3-Iodopropoxy)-4-phenyl-2H-chromen-2-one] | 91.2 ± 2.2 | 88.3 ± 1.4 | 35.6 ± 0.8 | 54.3 ± 0.4 | 12.8 ± 1.1 | 130 to 131 | – | 26.2 ± 1.4 | 39.5 ± 0.9 | –
CC(=O)OC[C@H]1O[C@@H](OCc2cn(CCCCOc3ccc4c(-c5ccccc5)cc(=O)oc4c3)nn2)[C@H](OC(C)=O)[C@@H](OC(C)=O)[C@H]1OC(C)=O [Compound 23] | 0 | 28.6 ± 0.2 | 35.2 ± 0.3 | 13.6 ± 0.4 | 30.4 ± 0.7 | 118 to 119 | – | – | – | –
Cn1c(COc2ccc3c(-c4ccccc4)cc(=O)oc3c2)n[nH]c1=S [Compound 1a] | 42.5 ± 1.2 | 24.1 ± 1.4 | 15.6 ± 0.2 | 34.8 ± 1.3 | 16.8 ± 0.1 | – | – | – | – | –
CC(=O)OC[C@H]1O[C@@H](Sc2nnc(COc3ccc4c(-c5ccccc5)cc(=O)oc4c3)n2C)[C@H](OC(C)=O)[C@@H](OC(C)=O)[C@H]1OC(C)=O [Compound 3, 4-Phenyl-7-((4-methyl-5-(1-(2,3,4,6-tetra-O-acetyl-β-D-galactopyranosyl)thio)-4H-1,2,4-triazol-3-yl)methoxy)-2H-chromen-2-one] | 18.4 ± 0.7 | 15.4 ± 0.5 | 9.8 ± 0.6 | 23.2 ± 1.1 | 11.1 ± 0.4 | 211 to 213 | – | – | – | –
CCn1c(COc2ccc3c(-c4ccccc4)cc(=O)oc3c2)nnc1S[C@@H]1OC[C@@H](OC(C)=O)[C@H](OC(C)=O)[C@H]1OC(C)=O [Compound 6, 4-Phenyl-7-((4-ethyl-5-(1-(2,3,4-tri-O-acetyl-β-D-xylopyranosyl)thio)-4H-1,2,4-triazol-3-yl)methoxy)-2H-chromen-2-one] | 33.1 ± 0.2 | 7.4 ± 0.3 | 14.3 ± 0.1 | 30.1 ± 0.1 | 18.9 ± 0.6 | 127 to 128 | – | – | – | –
CC(=O)O[C@@H]1[C@@H](OC(C)=O)[C@H](Sc2nnc(COc3ccc4c(-c5ccccc5)cc(=O)oc4c3)n2C)OC[C@H]1OC(C)=O [Compound 4, 4-Phenyl-7-((4-methyl-5-(1-(2,3,4-tri-O-acetyl-β-D-xylopyranosyl)thio)-4H-1,2,4-triazol-3-yl)methoxy)-2H-chromen-2-one] | 45.5 ± 0.6 | 36.9 ± 1.2 | 17.1 ± 0.3 | 24.9 ± 0.6 | 15 ± 0.6 | 132 to 133 | – | – | – | –
O=c1cc(-c2ccccc2)c2ccc(O)cc2o1 [Compound 15, 7-hydroxy-4-phenyl-2H-chromen-2-one] | 62.7 ± 1.5 | 34.5 ± 0.4 | 36.8 ± 1.1 | 46.1 ± 0.6 | 89.3 ± 0.7 | – | – | 88.3 ± 2.2 | – | 46 ± 2.2
[N-]=[N+]=NCCCOc1ccc2c(-c3ccccc3)cc(=O)oc2c1 [Compound 18, 7-(3-Azidopropoxy)-4-phenyl-2H-chromen-2-one] | – | – | – | – | – | 110 to 111 | – | – | – | –
[N-]=[N+]=NCCCCOc1ccc2c(-c3ccccc3)cc(=O)oc2c1 [Compound 19, 7-(4-Azidobutoxy)-4-phenyl-2H-chromen-2-one] | – | – | – | – | – | 114 to 116 | – | – | – | –
Cn1c(COc2ccc3c(-c4ccccc4)cc(=O)oc3c2)nnc1SCC(O)CO (centres unmarked) [Compound 13, 4-Phenyl-7-((5-((2,3-dihydroxypropyl)thio)-4-methyl-4H-1,2,4-triazol-3-yl)meth-oxy)-2H-chromen-2-one] | 2.8 ± 0.2 | 0 | 51.9 ± 0.2 | 16.6 ± 0.7 | 26.1 ± 0.3 | 170 to 171 | – | – | – | –
CCn1c(COc2ccc3c(-c4ccccc4)cc(=O)oc3c2)n[nH]c1=S [Compound 1b] | 92 ± 2.1 | 69.7 ± 2.4 | 88 ± 1.4 | 77.7 ± 0.8 | 81 ± 1.2 | – | high toxicity | – | – | –
